This note sets out measurements from patent US8227207B2, “Bioactive peptides derived from the proteins of egg white by means of enzymatic hydrolysis” (Consejo Superior de Investigaciones Cientifcas, priority 2004, dated 2012).

Test [1] concerns Wistar-Kyoto rats (WKY). Briefly: Systolic arterial pressure (tail cuff) in normotense Wistar-Kyoto rats. The test is classed as in vivo, rat. Conditions: highest dose used, intragastric probe. The procedure:
(§1) The effect is studied of various identified peptides and of some products containing them (for example egg white hydrolysed with pepsin for 3 hours and the fraction of it less than 3000 Da) on the arterial pressure of spontaneously hypertensive rats (SHR) and Wistar-Kyoto rats (WKY) which are the normotense controls for the SHR.
(§2) This study is conducted with SHR (10) and WKY of 17-24 weeks old and weight between 300 and 350 g, coming from Charles River Laboratories España, S. A. The rats are kept in cages of five by five and maintained at a stable temperature of 25° C. with light-dark cycles of 12 hours, ingesting freely available water and food. In order to carry out the measurement of systolic arterial pressure (SAP) “tail cuff” equipment is used (Le5001, Letica) which automatically provides a digital value of the SAP and records and facilitates the cardiac frequency of the animals. Various measurements are made and the average of all of them is obtained in order to achieve a reliable value of the SAP. Before positioning the cuff and transducer in the tail of the rats, the rats are exposed to a temperature of close to 30° C. in order to facilitate dilation of the caudal artery. Also, in order to ensure the reliability of the measurement, the animals are made to get used to the procedure for two weeks prior to conducting each assay in question.
(§3) The administration of the products to be assayed is done by means of an intragastric probe in a time margin of between 9 and 10 o'clock in the morning. The SHR used for the study had SAP values of between 230 and 280 mm Hg. The WKY used for the study at that moment had SAP values of between 160 and 200 mm Hg. Measurements of the SAP were taken from the animals periodically, every 2 hours, up to 8 hours post-administration of the products to be assayed; in addition, a SAP measurement was taken 24 hours after the administration of those products. As negative control (in order to establish the circadian variation of the SAP in probed rats) the measurements of the SAP obtained in rats which had been administered 1 ml of water by means of intragastric probe were used. As positive control, the measurements of the SAP obtained in rats which had been administered 50 mg/kg of Captopril (prototype ACEI drug) by means of intragastric probe were used. This dose of Captopril was administered to each rat in a volume of 1 ml. In order to establish the effect of the unhydrolysed egg white on the arterial pressure of the animals, similar assays to those described above were conducted, in which the animals were treated by the same procedure with 200 mg/kg of previously freeze-dried egg white (reference).
The results obtained are grouped and the mean±the standard error of measurement (SEM) is obtained for a minimum of 9 homogenous assays. […]

In test [2] the test system is spontaneously hypertensive rats (SHR). Briefly: Antihypertensive activity: systolic arterial pressure (tail cuff) in spontaneously hypertensive rats. The test is classed as in vivo, rat. The procedure:
as §1, §2, §3
The results obtained are grouped and the mean±the standard error of measurement (SEM) is obtained for a minimum of 9 homogenous assays. The data of the treated animals are always compared with the data deemed to be a negative control. In order to compare them and obtain the statistical significance, Student's t-test for unpaired data is used and the difference for values of p<0.05 is considered significant.

SMILES strings stand for the structures. Entries after “also recorded” stand apart in the source; their conditions may differ. Residues, ends and D or L forms follow the SMILES beside them.

As to `CC[C@H](C)[C@H](NC(=O)[C@@H]1CCCN1C(=O)[C@H](Cc1ccc(O)cc1)NC(=O)[C@H](CCCNC(=N)N)NC(=O)[C@H](CCC(=O)O)NC(=O)[C@H](CCC(=O)O)NC(=O)[C@H](C)NC(=O)[C@@H](N)Cc1ccc(O)cc1)C(=O)N[C@@H](CC(C)C)C(=O)O` [SEQ. ID. N^o 6] (H-YAEERYPIL-OH; N-terminus and C-terminus assumed), in test [1], the “change in SAP in normotense rats (in words)” value is reported as “not in normotensed Wistar-Kyoto rats; also recorded: none of these compounds modifies the SAP”. Also, the “time of maximum drop in SAP after administration” value in test [2] (intragastric probe) worked out at 6 h. The “drop in systolic arterial pressure (SAP) / anti-hypertensive activity (in words)” value in test [2] (single administration by intragastric probe) is “possess anti-hypertensive activity; also recorded: significant dose-dependent drop in the SAP; also recorded: clear and pronounced anti-hypertensive effect; also recorded: display anti-hypertensive activity”.
